Test results from US6703349B2, “Enhanced herbicide composition” (Valent BioSciences Corporation, priority 2001, dated 2004).

Columns and labels:
[1] = system: Pigweed; assay: Greenhouse spray test, phytotoxicity rating on pigweed; type: in vivo, Amaranthus retroflexus (red root pigweed); as to 24 hour phytotoxicity Rating (1 = least damage, 5 = most): COC 0.25% (v/v); as to 9 day phytotoxicity Rating (1 = least damage, 5 = most): COC 0.25% (v/v)
Protocol: (§1) Ultra pure water was used in preparing solutions. For active ingredients (e.g. lactofen or flumioxazin), the active ingredient was dissolved in a small amount of solvent (dimethyl sulfoxide (DMSO) or 1-methyl-2-pyrrolidone), and then water was added. Spray solutions were used as soon as possible after mixing.
(§2) COC in water was used as the control.
(§3) After spraying, plants were allowed to dry at room temperature (about 25° C.). They were then moved to the greenhouse, and plants were arranged in a randomized complete block experimental design. Plants were evaluated for phytotoxicity/herbicidal effects at 24 hours and 7 to 9 days after spraying, assessing damage according to the following scale:
(§4) 5=100% leaf area affected
(§5) All the data were subject to an analysis of variance, and the mean separations were determined with Duncan's multiple range test at p=0.05.

[2] = system: Tobacco; assay: Greenhouse spray test, phytotoxicity/herbicidal effect and re-growth rating on tobacco; type: in vivo, Nicotiana tabacum (tobacco); as to 8 day phytotoxicity Rating (1 = least damage, 5 = most): COC 0.25% (v/v); as to 9 day phytotoxicity Rating (1 = least damage, 5 = most): COC 0.25% (v/v)
Protocol: as §1, §2, §3, §4
(§6) Plants were rated for re-growth at 7 to 9 days after treatment according to the following scale:
(§7) 2=75% of control regrowth
(§8) 3=50% of control regrowth
as §5

[3] = system: Soybean; assay: Greenhouse spray test, phytotoxicity/herbicidal effect and re-growth rating on soybean; type: in vivo, Glycine max (soybean); as to 24 hour phytotoxicity Rating (1 = least damage, 5 = most): COC 0.25% (v/v); as to 8 day phytotoxicity Rating (1 = least damage, 5 = most): COC 0.25% (v/v)
Protocol: as §1, §2, §3, §4, §6, §7, §8, §5

[4] = system: Morning glory; assay: Greenhouse spray test, phytotoxicity rating on morning glory; type: in vivo; as to 24 hour phytotoxicity Rating (1 = least damage, 5 = most): COC 0.25% (v/v)
Protocol: as §1, §2, §3, §4, §5

[5] = system: Giant Foxtail; assay: Greenhouse spray test, phytotoxicity/herbicidal effect and re-growth rating on giant foxtail; type: in vivo, Setaria faberi (giant foxtail)
Protocol: as §1, §2, §3, §4, §6, §7, §8, §5

[6] = system: Lambsquarter; assay: Greenhouse spray test, phytotoxicity/herbicidal effect and re-growth rating on lambsquarter; type: in vivo, Chenopodium album (lambsquarter)
Protocol: as §1, §2, §3, §4, §6, §7, §8, §5

[7] = system: Waterhemp; assay: Greenhouse spray test, phytotoxicity/herbicidal effect and re-growth rating on waterhemp; type: in vivo, Amaranthus rudis (water hemp)
[8] = system: Cocklebur; assay: Greenhouse spray test, phytotoxicity/herbicidal effect and re-growth rating on cocklebur; type: in vivo, Xanthrum strumarium (cocklebur)
Protocol: as §1, §2, §3, §4, §6, §7, §8, §5

[9] = system: Burley tobacco; assay: Field test, phytotoxicity (percent leaf area affected) on Burley tobacco; type: in vivo; details: Burley tobacco in the field; apparent 1 day after application, persisted until day 7; summary of Table 6
[10] = Table 4, 24 hour, NaSA 1.6 g/L, Cobra 0.124 mL/L, Flumioxazin […], COC […] (v/v)
[11] = Table 4, 9 day, NaSA 1.6 g/L, Cobra 0.124 mL/L, Flumioxazin […], COC […] (v/v)
[12] = Table 2, 24 hour, NaSA 1.6 g/L, Cobra 0.124 mL/L, Lactofen 0.030 g/L, COC […] (v/v)
[13] = Table 2, 8 day, NaSA 1.6 g/L, Cobra 0.124 mL/L, Lactofen 0.030 g/L, COC […] (v/v)
[14] = Table 1, 8 day, NaSA 1.6 g/L, Cobra 0.124 mL/L, COC […] (v/v)
[15] = added to Cobra, summary of Table 1
[16] = Table 2, 8 day, NaSA 8.0 g/L, COC […] (v/v)

For `C#CCN1C(=O)COc2cc(F)c(N3C(=O)C4=C(CCCC4)C3=O)cc21` [Flumioxazin, flumioxazin], the “24 hour phytotoxicity Rating (1 = least damage, 5 = most)” value (shortened to “24 hour phytotoxicity Rating”) [1, 10] was 4.2, the “9 day phytotoxicity Rating (1 = least damage, 5 = most)” value [1, 11] was 5.0 and the “24 hour phytotoxicity Rating” value [2, 10] was 3.7. For the same compound, the “9 day phytotoxicity Rating (1 = least damage, 5 = most)” value [2, 11] was 5.0.

In the case of `CCOC(=O)C(C)OC(=O)c1cc(Oc2ccc(C(F)(F)F)cc2Cl)ccc1[N+](=O)[O-]` (centres unmarked) [Lactofen, lactofen], the “24 hour phytotoxicity Rating” value [2, 12] is reported as 3.1, the “8 day new growth rating (1 = healthy new growth, 5 = no new growth)” value [2, 13] is reported as 5.0 and the “8 day phytotoxicity Rating (1 = least damage, 5 = most)” value [2, 13] is reported as 4.2. The “24 hour phytotoxicity Rating” value [3, 12] was 2.4, the “8 day new growth rating (1 = healthy new growth, 5 = no new growth)” value [3, 13] was 2.6 and the “8 day phytotoxicity Rating (1 = least damage, 5 = most)” value [3, 13] was 2.7. The “24 hour phytotoxicity Rating” value ([4]; Table 3, 24 hour, NaSA 1.6 g/L, Cobra 0.124 mL/L, Lactofen 0.030 g/L, COC […] (v/v)) was 3.3.

In the case of `O=C([O-])c1ccccc1O.[Na+]` [NaSA, sodium salicylate], the “Effect of salicylate on Cobra herbicidal activity (in words)” value ([1]; added to Cobra, effect not statistically significant, summary of Table 4) is reported as “increased”, the “Effect of salicylate on flumioxazin herbicidal activity (in words)” value ([1]; added to flumioxazin, effect not statistically significant, summary of Table 4) is reported as “increased” and the “8 day new growth rating (1 = healthy new growth, 5 = no new growth)” value [5, 14] is reported as 1.0. For the same compound, the “Synergism of Cobra activity by addition of salicylate (in words)” value (“Synergism of Cobra activity” below) [5, 15] was “not”, the “8 day new growth rating (1 = healthy new growth, 5 = no new growth)” value [2, 14] was 1.0 and the “8 day new growth rating (1 = healthy new growth, 5 = no new growth)” value [2, 13] was 1.2. For the same compound, the “8 day new growth rating (1 = healthy new growth, 5 = no new growth)” value [2, 16] was 4.5, the “Synergism of Cobra activity” value [2, 15] was “synergized” and the “Effect of salicylate on flumioxazin activity (in words)” value ([2]; added to flumioxazin, summary of Table 4) was “increase flumioxazin activity”. The “Effect of salicylate on lactofen activity (in words)” value ([2]; added to lactofen, summary of Table 2) was “increase lactofen activity”, the “8 day new growth rating (1 = healthy new growth, 5 = no new growth)” value [3, 14] was 1.2 and the “8 day new growth rating (1 = healthy new growth, 5 = no new growth)” value [3, 13] was 2.0. The “8 day new growth rating (1 = healthy new growth, 5 = no new growth)” value [3, 16] was 4.2, the “Synergism of Cobra activity” value [3, 15] was “not” and the “Safening: effect of salicylate on herbicide-induced damage (in words)” value ([3]; summary of Table 1) was “decrease and delay herbicide-induced damage”. The “8 day new growth rating (1 = healthy new growth, 5 = no new growth)” value [6, 14] was 1.0, the “Synergism of Cobra activity” value [6, 15] was “synergized” and the “8 day new growth rating (1 = healthy new growth, 5 = no new growth)” value [7, 14] was 1.0. The “Synergism of Cobra activity” value [7, 15] was “not”, the “8 day new growth rating (1 = healthy new growth, 5 = no new growth)” value [8, 14] was 1.0 and the “Synergism of Cobra activity” value [8, 15] was “not”. For the same compound, the “Effect of addition of salicylate on Phoenix (lactofen) herbicidal activity (in words)” value [9] was “increased”, the “Effect of salicylate on herbicidal activity of Cobra (in words)” value ([4]; added to Cobra, summary of Table 3) was “increases the herbicidal activity” and the “Effect of salicylate on herbicidal activity of lactofen (in words)” value ([4]; added to lactofen, summary of Table 3) was “increases the herbicidal activity”.
